Reference: ChEMBL document CHEMBL1151565, “Biological evaluation of two potent inhibitors of Trypanosoma cruzi epimastigotes against the intracellular form of the parasite” (1996)
Several values for one entry are separate records, joined by “and”; a condition that tells them apart may be missing. Identical values can stand only once.

How the values were obtained:
Format in all cases: functional
[1] = Compound was tested for its activity against T. cruzi-infected L6E9 myoblasts at no concentration at 24 h.
[2] = Compound was tested for its activity against T. cruzi-infected L6E9 myoblasts at no concentration at 48 hr.
[3] = Compound was tested for its activity against T. cruzi-infected L6E9 myoblasts at no concentration at 72h.
[4] = Compound was tested for its activity against T. cruzi-infected L6E9 myoblasts at a concentration of 30 ug/mL.
[5] = Compound was tested for its activity against T. cruzi-infected L6E9 myoblasts at a concentration of 40 ug/mL.
[6] = Compound was tested for its activity against T. cruzi-infected L6E9 myoblasts expressed as parasites number per 100 myoblasts at a concentration of 30 ug/mL.
[7] = Compound was tested for its activity against T. cruzi-infected L6E9 myoblasts expressed as parasites number per 100 myoblasts at no concentration at 24 h.
[8] = Compound was tested for its activity against T. cruzi-infected L6E9 myoblasts expressed as parasites number per 100 myoblasts at no concentration at 48 hr.
[9] = Compound was tested for its activity against T. cruzi-infected L6E9 myoblasts expressed as parasites number per 100 myoblasts at no concentration at 72h.
[10] = Compound was tested for its activity against T. cruzi-infected L6E9 myoblasts at a concentration of 10 ug/mL.
[11] = Compound was tested for its activity against T. cruzi-infected L6E9 myoblasts at a concentration of 5 ug/mL.
[12] = Compound was tested for its activity against T. cruzi-infected L6E9 myoblasts expressed as parasites number per 100 myoblasts at a concentration of 5 ug/mL.

Compound | Myoblast with parasites [1] | Myoblast with parasites [2] | Myoblast with parasites [3] | Myoblast with parasites [4] | Myoblast with parasites [5] | Parasites no. per 100 Myoblasts [6] | Parasites no. per 100 Myoblasts [7] | Parasites no. per 100 Myoblasts [8] | Parasites no. per 100 Myoblasts [9] | Myoblast with parasites [10] | Myoblast with parasites [11] | Parasites no. per 100 Myoblasts [12]
CCSC(=O)OC/C=C(\C)CC/C=C(\C)CCC1OC1(C)C (stereo unspecified) | 21.25% | 16.25% | 20.5% | 23.25% and 9.75% | 10.25% and 2.75% | 77.75 and 27 | 46.5 | 118 | 694.5 | – | – | –
c1ccc(Oc2ccc(OCCOC3CCCCO3)cc2)cc1 (stereo unspecified) | 21.25% | 24.5% | 18.25% | – | – | – | – | 107 | – | 21.25% and 12.5% | 22.5% and 22% | 90.25 and 113.75
